Activity data for one compound are collected here from ChEMBL document CHEMBL2331364, “A synthetic dolastatin 10 analogue suppresses microtubule dynamics, inhibits cell proliferation, and induces apoptotic cell death” (J Med Chem, 2013).

Activity calls are given as the source filed them. The calls are words filed in the database; no cut-off is given here.

The test system of this assay is HeLa. Description: Induction of interphase microtubule depolymerization in human HeLa cells at 7 nM after 24 hrs by Hoechst 33258 dye-based fluorescence microscopy relative to control. Type of assay: cell-based.

With `CC[C@H](C)[C@@H]([C@@H](CC(=O)NC[C@H]1O[C@H](C(=O)NCCc2ccccc2)[C@@H](OC)[C@@H]1OC)OC)N(C)C(=O)[C@@H](NC(=O)[C@@H](NC)C(C)C)C(C)C`, the result was inactive.
